The target in one assay is TYK2 (JH2 domain) (Homo sapiens (Human), UniProt P29597). Nature of the assay: TYK2 JH2 domain binding assay (DiscoverX KINOMEscan). Conditions: 11-point 3-fold dilution, duplicate.
For assay [1], the system named is INFα induced pSTAT3 in human PBMC. The experiment in a line: INFα induced pSTAT3 in human PBMC. Particulars: read-out: p-STAT3 IC50. Type of assay: cell-based. On the procedure: Fresh Human PBMCs were resuspended in RPMI 1640 medium with 10% FBS. Cells were seeded in a round bottom 96-well plate at the concentration of 200,000 cells/well. A 10-point dilution series of test compound (top dose 10 uM, 1:5 dilution) was added to the well using the liquid dispenser (Tecan D300e) and incubated for 1 hour at 37 C. Then human INFα recombinant protein (R&D Systems) was added to the well at the final concentration of 5000 units/ml and incubated for 15 minutes at 37 C. Cell lysates were prepared and analyzed by Phospho STAT3 (Tyr705) cellular kit (Cisbio) or Phospho STAT5 (Tyr693) Kit (Meso Scale Discovery) following manufacturer's protocol.
For calculation of the inhibition rate, the relative pSTAT signal of each well=pSTAT signal of each well−the average pSTAT signal of baseline. The inhibition %=(the average pSTAT signal of INFα treatment wells−the relative of pSTAT signal in each compound containing well)/the average pSTAT signal of INFα treatment wells*100%
The curve was plotted as the inhibition % (y-axis) vs. compounds concentration (x-axis) and was fitted with log(inhibitor) vs. normalized response—Variable slope by GraphPad Prism7.0.

The test system of assay [2] is IL12-induced p-STAT4 in human PBMC. The experiment in a line: IL-12 induced pSTAT4 in human PBMC. The assay is classed as cell-based. Conditions: read-out: p-STAT4 IC50.
Description: Cells were seeded in a round bottom 96-well plate at the concentration of 200,000 cells/well. A 10-point dilution series of test compound (top dose 10 uM, 1:5 dilution) was added to the well using the liquid dispenser (Tecan D300e) and incubated for 1 hour at 37 C. Then human IL-12 recombinant protein (R&D Systems) was added to the well at the final concentration of 10 ng/ml and incubated for 15 minutes at 37 C. Cell lysates were prepared and analyzed by Phospho STAT4 (Tyr693) Kit (Meso Scale Discovery) following manufacturer's protocol.
For calculation of the inhibition rate, the relative pSTAT4 signal of each well=pSTAT4 signal of each well−the average pSTAT4 signal of baseline. The inhibition %=(the average pSTAT4 signal of IL-12 treatment wells−the relative of pSTAT4 signal in each compound containing well)/the average pSTAT4 signal of IL-12 treatment wells*100%
The test system of assay [3] is INFα induced pSTAT5 in human PBMC. The experiment in a line: INFα induced pSTAT5 in human PBMC. Type of assay: cell-based. Particulars: read-out: p-STAT5 IC50.

Like-named read-outs stand apart in the source and are kept apart here.

Sequence of TYK2 (JH2 domain) (P29597 589-875): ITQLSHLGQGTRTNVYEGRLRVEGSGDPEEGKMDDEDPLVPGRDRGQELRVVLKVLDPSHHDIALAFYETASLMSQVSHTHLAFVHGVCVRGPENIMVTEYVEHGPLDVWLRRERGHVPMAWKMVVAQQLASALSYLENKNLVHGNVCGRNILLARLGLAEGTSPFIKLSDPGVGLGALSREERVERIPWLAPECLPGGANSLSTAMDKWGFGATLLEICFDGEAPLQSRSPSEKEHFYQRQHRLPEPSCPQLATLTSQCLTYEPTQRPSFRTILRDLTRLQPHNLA

By Kd is commonly meant the constant that tells how readily two partners part at equilibrium. For orientation: IC50 means the point on the concentration scale where inhibition reaches its midpoint. The compound `[2H]C([2H])([2H])NC(=O)c1nnc(N2CCNC2=O)cc1Nc1cccc(-c2ncn(C)n2)c1OC` [Example 1, 4-[2-methoxy-3-(1-methyl-1,2,4-triazol-3-yl)anilino]-6-(2-oxoimidazolidin-1-yl)-N-(trideuteriomethyl)pyridazine-3-carboxamide] returned a Kd at TYK2 (JH2 domain) of at most 1 nM. The IC50 in assay [1] (human PBMC, INFα 5000 units/ml) is 100 to 1000 nM; in assay [2] (human PBMC, IL-12 10 ng/ml), below 100 nM.
In the same order, the values of `[2H]C([2H])([2H])NC(=O)c1nnc(N2CCN(C)C2=O)cc1Nc1cccc(-c2ncn(C)n2)c1OC` [Example 2, 4-[2-methoxy-3-(1-methyl-1,2,4-triazol-3-yl)anilino]-6-(3-methyl-2-oxo-imidazolidin-1-yl)-N-(trideuteriomethyl)pyridazine-3-carboxamide] are at most 1 nM, 100 to 1000 nM and below 100 nM.
Consider `[2H]C([2H])([2H])NC(=O)c1nnc(N2CCC2=O)cc1Nc1cccc(-c2ncn(C)n2)c1OC` [Example 3, 4-[2-methoxy-3-(1-methyl-1,2,4-triazol-3-yl)anilino]-N-methyl-6-(2-oxoazetidin-1-yl) pyridazine-3-carboxamide], for which the Kd on TYK2 (JH2 domain) fell in the range of 5 to 10 nM. For the same compound, the IC50 was 1000 to 10000 nM in assay [1] (human PBMC, INFα 5000 units/ml) and 100 to 1000 nM in assay [2] (human PBMC, IL-12 10 ng/ml).
On the same counts, the results for `[2H]C([2H])([2H])NC(=O)c1nnc(N2CCC3(CC3)C2=O)cc1Nc1cccc(-c2ncn(C)n2)c1OC` [Example 4, 4-[2-methoxy-3-(1-methyl-1,2,4-triazol-3-yl)anilino]-6-(4-oxo-5-azaspiro[2.4]heptan-5-yl)-N-(trideuteriomethyl)pyridazine-3-carboxamide] are at most 1 nM, 100 to 1000 nM and below 100 nM.
In the case of `[2H]C([2H])([2H])NC(=O)c1nnc(N2CCN(C(C)C)C2=O)cc1Nc1cccc(-c2ncn(C)n2)c1OC` [Example 6, 6-(3-isopropyl-2-oxo-imidazolidin-1-yl)-4-[2-methoxy-3-(1-methyl-1,2,4-triazol-3-yl)anilino]-N-(trideuteriomethyl)pyridazine-3-carboxamide], the concentration for half-maximal inhibition (IC50) in assay [3] (human PBMC, INFα 5000 units/ml) is below 100 nM; in assay [2] (Homo sapiens, PBMC), below 100 nM. The Kd at TYK2 (JH2 domain) is at most 1 nM.
Take `[2H]C([2H])([2H])NC(=O)c1nnc(N2CCC(C)(C)C2=O)cc1Nc1cccc(-c2ncn(C)n2)c1OC` [Example 7, 6-(3,3-dimethyl-2-oxo-pyrrolidin-1-yl)-4-[2-methoxy-3-(1-methyl-1,2,4-triazol-3-yl)anilino]-N-(trideuteriomethyl)pyridazine-3-carboxamide]: the IC50 in assay [1] (human PBMC, INFα 5000 units/ml) was 100 to 1000 nM; in assay [2] (human PBMC, IL-12 10 ng/ml), 100 to 1000 nM.
For the compound `[2H]C([2H])([2H])NC(=O)c1nnc(N2CCN(C3CC(F)(F)C3)C2=O)cc1Nc1cccc(-c2ncn(C)n2)c1OC` [Example 10, 6-[3-(3,3-difluorocyclobutyl)-2-oxo-imidazolidin-1-yl]-4-[2-methoxy-3-(1-methyl-1,2,4-triazol-3-yl)anilino]-N-(trideuteriomethyl)pyridazine-3-carboxamide], the IC50 in assay [3] (human PBMC, INFα 5000 units/ml) was below 100 nM; in assay [2] (human PBMC, IL-12 10 ng/ml) it was below 100 nM. Moreover, the dissociation constant Kd at TYK2 (JH2 domain) was at most 1 nM.
For `[2H]C([2H])([2H])NC(=O)c1nnc(N2CCN(C3CCC3)C2=O)cc1Nc1cccc(-c2ncn(C)n2)c1OC` [Example 11, 6-(3-cyclobutyl-2-oxo-imidazolidin-1-yl)-4-[2-methoxy-3-(1-methyl-1,2,4-triazol-3-yl)anilino]-N-(trideuteriomethyl)pyridazine-3-carboxamide], the concentration for half-maximal inhibition (IC50) in assay [3] (human PBMC, INFα 5000 units/ml) was below 100 nM; in assay [2] (human PBMC, IL-12 10 ng/ml) it was below 100 nM. In addition, the Kd at TYK2 (JH2 domain) was at most 1 nM.
On to `[2H]C([2H])([2H])NC(=O)c1nnc(N2CCN(C(C([2H])([2H])[2H])C([2H])([2H])[2H])C2=O)cc1Nc1cccc(-c2ncn(C)n2)c1OC` [Example 13, 6-(3-isopropyl-2-oxo-imidazolidin-1-yl)-4-[2-methoxy-3-(1-methyl-1,2,4-triazol-3-yl)anilino]-N-(trideuteriomethyl)pyridazine-3-carboxamide], for which the IC50 was below 100 nM in assay [1] (Homo sapiens, PBMC) and below 100 nM in assay [2] (Homo sapiens, PBMC).
`[2H]C([2H])([2H])NC(=O)c1nnc(N2CCN(C(C)C)C2=O)cc1Nc1cccc(-c2ncn(C)n2)c1OC([2H])([2H])[2H]` [Example 14, 6-(3-isopropyl-2-oxo-imidazolidin-1-yl)-4-[3-(1-methyl-1,2,4-triazol-3-yl)-2-(trideuteriomethoxy)anilino]-N-(trideuteriomethyl)pyridazine-3-carboxamide]: the half-maximal inhibitory concentration (IC50) in assay [3] (human PBMC, INFα 5000 units/ml) was below 100 nM; in assay [2] (human PBMC, IL-12 10 ng/ml) it was below 100 nM. The same compound came in with a Kd on TYK2 (JH2 domain) of at most 1 nM.
Regarding `[2H]C([2H])([2H])NC(=O)c1nnc(N2CCN(C(C)C)C2=O)cc1Nc1cccc(-c2ncn(C([2H])([2H])[2H])n2)c1OC` [Example 15, 6-(3-isopropyl-2-oxo-imidazolidin-1-yl)-4-[2-methoxy-3-[1-(trideuteriomethyl)-1,2,4-triazol-3-yl]anilino]-N-(trideuteriomethyl)pyridazine-3-carboxamide], the IC50 in assay [3] (human PBMC, INFα 5000 units/ml) is below 100 nM; in assay [2] (human PBMC, IL-12 10 ng/ml), below 100 nM. For the same compound, at TYK2 (JH2 domain), the Kd is at most 1 nM.
For the compound `[2H]C([2H])([2H])NC(=O)c1nnc(N2CCN(C3(C)COC3)C2=O)cc1Nc1cccc(-c2ncn(C)n2)c1OC` [Example 16, 4-[2-methoxy-3-(1-methyl-1,2,4-triazol-3-yl)anilino]-6-[3-(3-methyloxetan-3-yl)-2-oxo-imidazolidin-1-yl]-N-(trideuteriomethyl)pyridazine-3-carboxamide], the IC50 in assay [3] (human PBMC, INFα 5000 units/ml) is below 100 nM; in assay [2] (human PBMC, IL-12 10 ng/ml), below 100 nM. In addition, the Kd at TYK2 (JH2 domain) is at most 1 nM.
In the case of `COc1c(Nc2cc(NC(=O)C3CC3)ncc2C(=O)C2CC2)cccc1-c1ncn(C)n1` [Example 27], the IC50 in assay [3] (Homo sapiens, PBMC) was below 100 nM; in assay [2] (Homo sapiens, PBMC), below 100 nM.
Take `COc1c(Nc2cc(Nc3ccccn3)ncc2C(=O)C2CC2)cccc1-c1ncn(C)n1` [Example 37]: the IC50 in assay [3] (human PBMC, INFα 5000 units/ml) is below 100 nM; in assay [2] (human PBMC, IL-12 10 ng/ml) it was below 100 nM. On TYK2 (JH2 domain), this compound displayed an equilibrium dissociation constant (Kd) of at most 1 nM.
Regarding `[2H]C([2H])([2H])NC(=O)c1nnc(NC(=O)N2CC(C)C2)cc1Nc1cccc(-c2ncn(C)n2)c1OC` [Example 49], the IC50 was below 100 nM in assay [3] (human PBMC, INFα 5000 units/ml) and below 100 nM in assay [2] (human PBMC, IL-12 10 ng/ml). In addition, the Kd at TYK2 (JH2 domain) was at most 1 nM.
On to `COc1c(Nc2cc(NC(=O)C3CC3)ncc2C(=O)C2CC2)cccc1-c1nnn(C)n1` [Example 51], for which the IC50 in assay [3] (human PBMC, INFα 5000 units/ml) was below 100 nM; in assay [2] (human PBMC, IL-12 10 ng/ml), below 100 nM. On TYK2 (JH2 domain), this compound came in with a Kd of at most 1 nM.
For `[2H]C([2H])([2H])n1cnc(-c2cccc(Nc3cc(NC(=O)C4CC4)ncc3C(=O)C3CC3)c2OC)n1` [Example 54], the 50% inhibitory concentration (IC50) is below 100 nM in assay [3] (human PBMC, INFα 5000 units/ml) and below 100 nM in assay [2] (human PBMC, IL-12 10 ng/ml).
The compound `[2H]C([2H])([2H])NC(=O)c1nnc(N2CCN(C3(C)CC3)C2=O)cc1Nc1cccc(-c2ncn(C)n2)c1OC` [Example 88] came in with a Kd on TYK2 (JH2 domain) of at most 1 nM. In addition, in assay [2] (human PBMC, IL-12 10 ng/ml), the half-inhibitory concentration (IC50) is below 100 nM.
With `[2H]C([2H])([2H])NC(=O)c1nnc(N2CCN(C(C)(C)C)C2=O)cc1Nc1cccc(-c2ncn(C)n2)c1OC` [Example 89], the 50% inhibitory concentration (IC50) in assay [3] (human PBMC, INFα 5000 units/ml) was below 100 nM; in assay [2] (human PBMC, IL-12 10 ng/ml) it was below 100 nM. The same compound gave a dissociation constant Kd at TYK2 (JH2 domain) of at most 1 nM.
Turning to `[2H]C([2H])([2H])NC(=O)c1nnc(N2CCN(CCCC)C2=O)cc1Nc1cccc(-c2ncn(C)n2)c1OC` [Example 91], the dissociation constant Kd on TYK2 (JH2 domain) is at most 1 nM. For the same compound, the IC50 in assay [2] (human PBMC, IL-12 10 ng/ml) is below 100 nM.
As for `[2H]C([2H])([2H])NC(=O)c1nnc(N2CCN(C3CCC(F)(F)CC3)C2=O)cc1Nc1cccc(-c2ncn(C)n2)c1OC` [Example 94], on TYK2 (JH2 domain), the Kd was at most 1 nM. Also, in assay [2] (human PBMC, IL-12 10 ng/ml), the IC50 was below 100 nM.
On the same counts, the results for `[2H]C([2H])([2H])NC(=O)c1nnc(N2CCN(C3(C#N)CC3)C2=O)cc1Nc1cccc(-c2ncn(C)n2)c1OC` [Example 95] are at most 1 nM and below 100 nM.
For `[2H]C([2H])([2H])NC(=O)c1nnc(N2CCN(CC3CCC3)C2=O)cc1Nc1cccc(-c2ncn(C)n2)c1OC` [Example 96], the equilibrium dissociation constant (Kd) at TYK2 (JH2 domain) was at most 1 nM. Moreover, in assay [2] (human PBMC, IL-12 10 ng/ml), the half-inhibitory concentration (IC50) is below 100 nM.
In turn, `[2H]C([2H])([2H])NC(=O)c1nnc(N2CCN(C3CCCOC3)C2=O)cc1Nc1cccc(-c2ncn(C)n2)c1OC` (centres unmarked) [Example 98] yielded a dissociation constant (Kd) on TYK2 (JH2 domain) of at most 1 nM. Besides, the IC50 in assay [2] (human PBMC, IL-12 10 ng/ml) was below 100 nM.
For `[2H]C([2H])([2H])NC(=O)c1nnc(N2CCN(CCC)C2=O)cc1Nc1cccc(-c2ncn(C)n2)c1OC` [Example 99], at TYK2 (JH2 domain), the equilibrium dissociation constant (Kd) was at most 1 nM. For the same compound, the IC50 in assay [2] (human PBMC, IL-12 10 ng/ml) is below 100 nM.
In the same order, the values of `[2H]C([2H])([2H])NC(=O)c1nnc(N2CCN(C3CC(C)C3)C2=O)cc1Nc1cccc(-c2ncn(C)n2)c1OC` (centres unmarked) [Example 100] are at most 1 nM and below 100 nM.
The compound `[2H]C([2H])([2H])NC(=O)c1nnc(N2CCN(C(C([2H])([2H])[2H])C([2H])([2H])[2H])C2=O)cc1Nc1cccc(-c2ncn(C)n2)c1OC` [Example 103] gave a Kd at TYK2 (JH2 domain) of at most 1 nM. Also, the half-inhibitory concentration (IC50) in assay [2] (human PBMC, IL-12 10 ng/ml) was below 100 nM.

(Values after US11053219B2, “Substituted pyridines as TYK2 inhibitors” (FronThera U.S. Pharmaceuticals LLC, priority 2018, dated 2021).)
